Measurements as given in patent US8080582B2, “Derivatives of 8-epiblechnic acid and their effects on down-regulation of endothelin (ETA) receptor mRNA” (ScinoPharm Taiwan Ltd., priority 2008, dated 2011).
“Also recorded” adds a separate entry of the source.

Legend:
Format in all cases: cell-based
[1] = tested on: Vascular smooth muscle cells (cell line A10); experiment: MTT cell viability / observation of normal vascular smooth muscle cells (A10); conditions: 48 hrs; for Precipitation in the treated sample: dissolved in DMSO, added to A10 cells, 0.2 mM
Description: (§1) The cells (1×10^5 cells/well in 24-well plates) were cultured for 24 hrs. Different concentrations of Sal-B and its analogs (0, 50, 100, 150, 200, 250 μg/ml) were added to treat the cells. After treating for 48 hrs, 100 μl MTT solution was added to each well, and the plate was placed in an incubator for 1-4 hrs. After adding 400 μl DMSO to treat the cells for 30 min., 200 μl samples were collected and placed in a 96-well plate to conduct the absorption measurement at 550 nm.
Cell viability testing (MTT testing) was employed to determine the cytotoxicity of Sal-B and EBA to vascular smooth muscle cells. Vascular smooth muscle cells (cell line A10) were treated with Sal-B and EBA at concentrations of 0, 0.1, 0.2, 0.3, 0.4, and 0.5 mM. After treating for 48 hrs, MTT was added and allowed to react for 3 hrs at 37° C. Then, DMSO was added and allowed to react for 30 min., after that, the OD570 absorption values were measured. Cell viability was still 90% when the drug concentration reached 0.2 mM.
Sal-B's analogs, compounds A to F, were dissolved in DMSO, and then added to A10 cells to observe the results.

[2] = tested on: nasopharyngeal cancer cells (Hone-1); experiment: MTT cell viability, nasopharyngeal cancer cells; conditions: Hone-1 cells, summary statement
Description: as §1
(§2) Cancer cells were treated with Sal-B and EBA at concentrations of 0, 0.1, 0.2, 0.3, 0.4, 0.5 mM. After treating for 48 hrs, MTT was added, and then allowed to react for 3 hrs at 37° C. After that, DMSO was added and allowed to react for 30 min., the OD570 absorption values were measured. Cell viability was above 80% when nasopharyngeal cancer cells (Hone-1) were treated with […] Sal-B and EBA. […] But the cell viability remained above 70% for treating with 0.1 mM and 0.2 mM EBA. Similar results were obtained when prostate cancer cells (PC-3) were treated with the drugs: Cell viability was above 80% for treating PC-3 cells with 0.2 mM Sal-B or EBA.

[3] = tested on: normal mammary gland cell line (A1N4); experiment: Cytotoxicity test on normal mammary gland cells; conditions: A1N4 normal mammary gland cells, FIG. 2
Description: as §1

[4] = tested on: ETAR mRNA expression; experiment: Real-time quantitative RT-PCR of ETAR mRNA in smooth muscle cells (A10); conditions: A10 smooth muscle cells, 0.2 mM, 48 hrs, vs DMSO control, FIG. 4, read-out: ETAR mRNA remaining after the treatment
Description: Extraction of cellular RNA: Subculturing smooth muscle cells to 100-mm culture dishes. After the cells had filled the culture dishes, Sal-B and its analogs were added to treat the cells for 48 hrs. After that, 1×PBS solutions were added to wash the cells three times. After adding 1 ml TRIzol, the cells were scraped off and placed in 1.5 ml micro-centrifuge tubes. Following the addition of 0.2 ml chloroform to each tube, the tubes were shaken, left at room temperature for 3 min., and run in a centrifuge at 12,000 rpm for 15 min. The supernatant liquid was removed and the cells placed in new micro-centrifuge tubes. After adding an amount of isopropyl alcohol equivalent to one-half of the volume of the supernatant liquid, and mixing until homogeneous, the samples were allowed to stand at room temperature for 10 min. The supernatant liquid was removed after centrifugation at 12,000 rpm for 10 min. 1 ml 70% alcohol was added to wash out salts, followed by centrifugation for 5 min. and removal of supernatant liquid. The samples were dissolved in 50 μl DEPC-H2O after drying.
(1) cDNA synthesis: 1 μl Random hexamer primer (20 μM) and 1 μl dNTP(10 mm) were added to 3 μg RNA, which was allowed to react at 65° C. for 5 min., and then placed on ice promptly. After the addition of 2 μl 10× reaction buffer, 0.5 μl RNaseOUT (40 unit/μl) and 1 μl SuperScript III RT (200 unit/μl), the solution was mixed until homogeneous, and allowed to react at 50° C. for 50 min. After that, the mixture was heated to 85° C. for 5 min. to terminate the enzymatic reaction. The samples were preserved at −70° C. for later use.
(2) PCR quantitative analysis: After adding 7.5 μl PCR primer mix (400 nm each) and 15 μl SYBR Green dye reagent to the 7.5 μl cDNA template, the solution was placed in Bio-Rad's iCycler for PCR reaction. The resulting data was inputted into Gene Expression Analysis for iCycler iQ Real-Time PCR Detection System for quantitative analysis of gene expression.
Furthermore, after treating vascular smooth muscle cells with 100 μg/ml of either Sal-B or EBA for 48 hrs, the identical concentrations of cellular whole RNA were sampled for the synthesis of cDNA by using reverse transcriptase. The PCR method was employed to determine the amounts of endothelin receptor mRNA expression. […] For the analysis of ETAR mRNA expression by using the real-time PCR method, vascular smooth muscle cells at full confluence 100-mm culture dishes were treated with 100 μg/ml of either Sal-B or EBA for 48 hrs. The identical concentrations of cellular whole RNA were sampled for the synthesis of cDNA by using reverse transcriptase. The real-time PCR method was used to compare the amounts of ETAR mRNA expression.
The different analogs, compounds A to F, had different effects on ETAR mRNA expression. The control group represented treating smooth muscle cells (A10) with DMSO, and the positive control group represented treating the cells with Sal-B. The smooth muscle cells were treated with 0.2 mM Sal-B and compounds A to F for 48 hrs. The identical concentrations of cellular RNA were sampled for the synthesis of cDNA by using reverse transcriptase. The real-time PCR method was employed to determine the amounts of ETAR mRNA expression. Compared with the control group, compound B had the least effect on down-regulating ETAR mRNA expression, as approximately 50% of the ETAR mRNA remained after the treatment. […]

[5] = tested on: prostate cancer cells (PC-3); experiment: MTT cell viability, prostate cancer cells; conditions: for Viability of PC-3 cells as the concentration is increased: PC-3, MTT, increasing concentration, FIG. 1
Description: as §1, §2
MTT testing was employed to observe the viability of cancer cells after treating with Sal-B and the six synthetic analogs.

[6] = tested on: PC-3 cancer cells; experiment: Flow cytometry cell cycle analysis (sub-G1, apoptosis) of PC-3 cells; conditions: PC-3, 0.01 mM, 48 hrs, PI flow cytometry; control around 1.18%
Description: After suspending cells, the precooled 70% ethanol was used for fixing the cells. After centrifuging the mixture for 10 min. at 3,000 rpm, supernatant liquid was removed. Propidium iodide (PI) buffer (0.1% Triton X-100, 0.2 μg/ml RNase A, 40 μg/ml PI) was added, and then the solution was kept still at 37° C. for 30 min. After that, the cell cycle analysis was conducted by flow cytometry.
Flow cytometry was used to determine whether Sal-B and its analogs induced apoptosis in cancer cells. After treating PC-3 cancer cells with 0.4 mM Sal-B and EBA, and 0.01 mM compounds B and A for 48 hrs, the cells were collected and allowed to react with PI buffer for 30 min. Flow cytometry was then employed to measure the cell cycle. Approximately 5.16% of PC-3 cancer cells were at sub-G1 phase after treating with Sal-B, roughly 5.27% were at sub-G1 phase after treating with compound B, and roughly 8.54% were at sub-G1 phase after treating with compound A. However, for the control, only around 1.18% of the cells were at sub-G1 phase. Therefore, Sal-B and its analogs (compounds B and A) thus caused a significant increase in the percentage of cells at sub-G1 phase.

Row | Structure (SMILES) | Cytotoxicity / cell death in A10 cells ([1]; A10 cells, 0.2 mM in DMSO) | Inhibition of growth of Hone-1 cells [2] | Cytotoxicity to normal cells [3] | mrna remaining at 200 µM [4] [%] | Viability of PC-3 cells as the concentration is increased [5] | Toxicity to PC-3 cells relative to Sal-B ([5]; PC-3 cells, compared with Sal-B) | PC-3 cancer cells at sub-G1 phase [6] | Precipitation in the treated sample [1]
1 | COC(=O)C(Cc1ccc(OC)c(OC)c1)NC(=O)/C=C/c1ccc(OC)c2c1C(C(=O)NC(Cc1ccc(OC)c(OC)c1)C(=O)OC)C(c1ccc(OC)c(OC)c1)O2 (stereo not drawn) [Compound A, 2-(3,4-dimethoxyphenyl)-7-methoxy-4-{(E)-2-[1-(methoxycarbonyl)-2-(3,4-dimethoxyphenyl)-ethylcarbamoyl]-vinyl}-2,3-dihydro-benzofuran-3-carboxylic acid-1-(methoxycarbonyl)-[2-(3,4-dimethoxyphenyl)-ethyl]-amide] | high level of cell death; also recorded: relatively high cytotoxicity | significantly inhibit the growth | low toxicity to normal cells | < 20 | led to the similar results | ten times more toxic to PC-3 cells than Sal-B | roughly 8.54% | 
2 | COC(=O)C(Cc1ccccc1)NC(=O)/C=C/c1ccc(OC)c2c1C(C(=O)NC(Cc1ccc(OC)c(OC)c1)C(=O)OC)C(c1ccc(OC)c(OC)c1)O2 (stereo not drawn) [Compound B, 2-(3,4-dimethoxyphenyl)-7-methoxy-4-{(E)-2-[1-(methoxycarbonyl)-2-phenyl-ethylcarbamoyl]-vinyl}-2,3-dihydro-benzofuran-3-carboxylic acid-1(methoxycarbonyl)-[2-(3,4-dimethoxyphenyl)-ethyl]-amide] |  | significantly inhibit the growth | relatively toxic to normal cells | ~50 | led to the similar results |  | roughly 5.27% | significant precipitation
3 | COC(=O)C(Cc1ccc(OC)c(OC)c1)NC(=O)/C=C/c1cc(OC)c2c(c1)C(C(=O)NC(Cc1ccc(OC)c(OC)c1)C(=O)OC)C(c1ccc(OC)c(OC)c1)O2 (stereo not drawn) [Compound C, 2-(3,4-dimethoxyphenyl)-7-methoxy-5-{(E)-2-[1-(methoxycarbonyl)-2-(3,4-dimethoxyphenyl)-ethylcarbamoyl]-vinyl}-2,3-dihydro-benzofuran-3-carboxylic acid-1-(methoxycarbonyl)-[2-(3,4-dimethoxyphenyl)-ethyl]-amide] |  |  |  | < 20 |  |  |  | 
4 | COC(=O)C1Cc2cc(OC)c(OC)cc2CN1C(=O)/C=C/c1cc(OC)c2c(c1)C(C(=O)N1Cc3cc(OC)c(OC)cc3CC1C(=O)OC)C(c1ccc(OC)c(OC)c1)O2 (stereo not drawn) [Compound E] |  |  |  |  |  |  |  | significant precipitation
